Data reported in PubChem BioAssay (NCI).
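Where inhibition never reached the appropriate level, the endpoint shown equals the highest concentration tested. Otherwise, values were interpolated linearly from a five-concentration, 48-hour dose response in 96-well plates. TGI is the concentration that stops growth completely.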

Assays:
Experiment in all cases: growth of human tumour cells (NCI), 48 h
RPMI-8226 leukemia = test system: RPMI-8226 leukemia
HOP-92 NSCLC = test system: HOP-92 NSCLC
SK-MEL-2 melanoma = test system: SK-MEL-2 melanoma
A498 renal = test system: A498 renal
OVCAR-4 ovarian = test system: OVCAR-4 ovarian
PC-3 prostate = test system: PC-3 prostate
SK-MEL-5 melanoma = test system: SK-MEL-5 melanoma
TK-10 renal = test system: TK-10 renal
HS 578T breast = test system: HS 578T breast
786-0 renal = test system: 786-0 renal

| Compound | TGI (RPMI-8226 leukemia) | TGI (HOP-92 NSCLC) | TGI (SK-MEL-2 melanoma) | TGI (A498 renal) | TGI (OVCAR-4 ovarian) | TGI (PC-3 prostate) | TGI (SK-MEL-5 melanoma) | TGI (TK-10 renal) | TGI (HS 578T breast) | TGI (786-0 renal) |
| --- | --- | --- | --- | --- | --- | --- | --- | --- | --- | --- |
| O=C(Nc1ccccc1C(=O)NCCCO)/C(=C/c1ccccc1O)NC(=O)c1ccccc1 | > 100 µM | > 100 µM | > 100 µM | > 100 µM | > 100 µM | > 100 µM | > 100 µM | > 100 µM | 77.6 µM | > 89.9 µM |
| COCc1nc2c(OC)cc(-c3nc4ccc(N5CCN(C)CC5)cc4[nH]3)c(OC)c2[nH]1 | > 100 µM | > 100 µM | 76.3 µM | > 100 µM | > 100 µM | > 100 µM | 53.2 µM | > 100 µM | > 100 µM | > 100 µM |
| NC1CNC(=O)c2c(Cl)sc(Cl)c21 (configuration not stated) | > 100 µM | > 100 µM | > 100 µM | > 100 µM | > 100 µM | > 100 µM |  | > 100 µM | > 100 µM | > 100 µM |
| Brc1cccc(N=NN2CCCC2)c1 | 58.8 µM | > 100 µM | > 100 µM | > 100 µM | > 100 µM | > 100 µM | > 100 µM | > 100 µM | > 100 µM | > 100 µM |
| CCNC(=O)C1CCCN1C(=O)C(CCCN=C(N)N)NC(=O)C(CC(C)C)NC(=O)C(Cc1c[nH]c2ccccc12)NC(=O)C(Cc1ccc(O)cc1)NC(=O)C(CO)NC(=O)C(Cc1c[nH]c2ccccc12)NC(=O)C(Cc1cnc[nH]1)NC(=O)C1CCC(=O)N1 (configuration not stated) | > 100 µM | > 100 µM | > 100 µM | > 100 µM | > 100 µM | > 100 µM | > 100 µM | > 100 µM | > 100 µM | > 100 µM |
| Clc1ccc(OCc2nnc(CCCCCCCCc3nnc(COc4ccc(Cl)cc4)n3Nc3ccccc3)n2Nc2ccccc2)cc1 | 5.13 µM | 77 µM | 63.5 µM | > 100 µM | > 100 µM | > 100 µM | 2.72 µM | > 100 µM | > 100 µM | 58 µM |
| C=c1c(OC)c(OC)c(O)c2c1=c1cc([N+](=O)[O-])cc(OC)c1=N2 | > 100 µM | > 100 µM | > 100 µM | > 100 µM | > 100 µM | > 100 µM | > 100 µM | > 100 µM | > 100 µM | > 100 µM |
| CC1(C)CNC(=O)C2(C=NC(C)(C)CNC(=O)C3(C=N1)CCCO3)CCCO2 (configuration not stated) | > 10 µM | > 10 µM |  | > 10 µM | > 10 µM | > 10 µM | > 10 µM | > 10 µM | > 10 µM | > 10 µM |
| CC1(CNCc2ccccc2)CC(CCc2ccccc2)N(C(=O)c2ccc([N+](=O)[O-])cc2)C1Cc1ccc(O)cc1 (configuration not stated) | > 100 µM | 9.88 µM | 32.7 µM | 26.7 µM | 28.2 µM | 26.3 µM | 17.3 µM | 30.9 µM | 46.8 µM | 25.9 µM |
| N#Cc1cc2c(cc1Cl)Sc1nccn1S2(=O)=O | 20.8 µM | 15.3 µM | 12.8 µM | 33 µM | 22.1 µM | 8.93 µM | 22.6 µM | 28 µM | 8.37 µM | 28.8 µM |
| CC(C)(C)c1cc(/C=C(\C#N)C(=O)NCCO)cc(C(C)(C)C)c1O | 35.6 µM | > 100 µM | 37.4 µM | 48.4 µM | 76.5 µM | 46.7 µM | 28.1 µM | 60.9 µM | > 100 µM | 48.3 µM |
| CC1(C)C=C(S(=O)(=O)c2ccccc2)Oc2ccccc2O1 | > 100 µM | 67.5 µM | > 100 µM | > 100 µM | > 100 µM | > 100 µM | 28.9 µM | 36 µM | > 100 µM | > 100 µM |
| CCC(C)C(=O)OC1CC2(C)C(c3ccoc3)OC(=O)CC23OC2(C)OC34C(OC(=O)C(C)C)C3(O)C(OC(=O)C5(C)OC5C)C5(C)CC3(O)C(C)(C5CC(=O)OC)C14O2 (configuration not stated) |  | > 100 µM | > 100 µM | > 100 µM | > 100 µM | > 100 µM | 87 µM | > 100 µM | > 100 µM | > 100 µM |
| Brc1ccc2c(-c3csc(-c4c[nH]c5ccc(Br)cc45)n3)c[nH]c2c1 | > 21.4 µM | 9.27 µM | 18.8 µM | 8.42 µM | 23.9 µM | 19.8 µM | 12.8 µM | 15.2 µM | > 51.3 µM | 4.71 µM |
